In patent US20210388007A1, “COMPOUND AND PREPARATION METHOD AND APPLICATION THEREOF” (WUHAN UNIVERSITY, priority 2020, published 2021):

Assays:
[1] = solubility in common solvents of the tri(di)fluoroethanolation reagents; format: physicochemical; conditions: for solubility acetonitrile: solvent acetonitrile; for solubility dichloromethane (DCM): solvent dichloromethane (DCM); for solubility ethyl acetate (EA): solvent ethyl acetate (EA); for solubility n-hexane: solvent n-hexane
Description: (§1) The storage stability, light stability and solubility in common solvents of the tri(di)fluoroethanolation reagents 1a, 2a, A2, A3 and A4 prepared in Embodiment 1, Embodiment 23, Embodiment 30, Embodiment 31 and Embodiment 32 of the present disclosure were tested, and the results are shown in Table 1 below.

[2] = storage stability (sealed storage, degradation rate); format: physicochemical
Description: as §1

[3] = light stability (continuous white light irradiation, degradation rate); format: physicochemical
Description: as §1

| SMILES | solubility acetonitrile [1] | solubility dichloromethane (DCM) [1] | solubility ethyl acetate (EA) [1] | solubility n-hexane [1] | storage stability, sealed storage at 5° C. for two weeks (degradation rate, mol %) [2] [% mol %] | storage stability, sealed storage at 30° C. for two weeks (degradation rate, mol %) [2] [% mol %] | light stability, continuous white light irradiation at 25° C. for 2 days (degradation rate, mol %) [3] [% mol %] | storage stability, sealed storage at 5° C. for two weeks (degradation rate, mol %) ([2]; listed as A2) [% mol %] | storage stability, sealed storage at 30° C. for two weeks (degradation rate, mol %) ([2]; listed as A2) [% mol %] | melting point [°C] |
| --- | --- | --- | --- | --- | --- | --- | --- | --- | --- | --- |
| C[Si](c1ccccc1)(c1ccccc1)C(O)C(F)(F)F (racemic) [Embodiment A4] | dissolved | dissolved | dissolved | well | <1 | 3.2 | <1 |  |  |  |
| C[Si](C)(c1ccccc1)C(O)C(F)(F)F (racemic) [a1] | dissolved | dissolved | dissolved | dissolved | <1 | 5 | <1 |  |  |  |
| C[Si](C)(c1ccccc1)C(O)C(F)F (racemic) [a2] | dissolved | dissolved | dissolved | dissolved | <1 | 4 | <1 | 2 | 14 |  |
| CC1(CC(O)C(F)(F)F)C(=O)N(c2ccccc2)c2ccccc21 (stereo not shown) [Embodiment 21, 3-methyl-1-phenyl-3-(3,3,3-trifluoro-2-hydroxypropyl)indol-2-one] |  |  |  |  |  |  |  |  |  | 116 to 118 |
| OC(C(F)(F)F)[Si](c1ccccc1)(c1ccccc1)c1ccccc1 (stereo not shown) [Embodiment A3] | dissolved | dissolved | dissolved | slightly | <1 | <1 | <1 |  |  |  |
